Measured values from US11293023B2, “Tunable endogenous protein degradation” (Dana-Farber Cancer Institute, Inc., priority 2015, dated 2022).

Key:
[1] = target: T1, FKBP* (FKBP12 F36V), HA-tagged (Homo sapiens, UniProt P62942, F37V); test: Immunoblot of FKBP* degradation in 293FT cells (CRBN-WT or CRBN−/−); assay type: cell-based; conditions: for degradation of FKBP*: 100 nM
T1 construct: expressed in transfected cells; host or cells: 293FT cells (CRBN-WT or CRBN-/-)
Description: 293FT cells (CRBN-WT or CRBN−/−) expressing either HA-tagged FKBP12WT or FKBP* were treated with indicated concentrations of dFKBP7 for 4 hours.
Isogenic 293FT cells (CRBN-WT or CRBN−/−) expressing either FKBP12WT or FKBP* were treated with 100 nM of either dFKBP7 or dFKBP13 for 4 hours.
Isogenic 293FT cells (CRBN-WT or CRBN−/−) expressing HA-tagged FKBP* were treated with the indicated dose of dFKBP13 for 4 hours.
293FT cells (CRBN-WT) expressing FKBP* were pretreated with 1 uM Carfilzomib (proteasome inhibitor), 0.5 uM MLN4924 (neddylation inhibitor), and 10 uM Lenalidomide (CRBN binding ligand) for two hours prior to a 4 hour treatment with dFKBP13.
The dTAG is predicated on the selectivity of FKBP* specific ligands over endogenous, wild type FKBP. In 293T cells expressing wild type FKBP12 or FKBP*, dFKBP7 induces targeted degradation only in FKBP* expressing cells. […] 293FT cells (CRBN-WT or CRBN−/−) expressing either HA-tagged FKBP12WT or FKBP* were treated with indicated concentrations of dFKBP7 for 4 hours.
In 293T cells expressing wild type FKBP12 or FKBP*, treatment with dFKBP7 and dFKBP13 induces targeted degradation only in FKBP* expressing cells. Isogenic 293FT cells (CRBN-WT or CRBN−/−) were engineered to expressed either FKBP12WT or FKBP*. Cells were treated with 100 nM of either dFKBP7 or dFKBP13 for 4 hours before lysates were prepared for western immunoblot analysis.
In an effort to define the optimal concentration of dFKB13 heterobifunctional compound to induce degradation of FKBP*, degradation was measured upon treatment with increasing concentrations of dFKBP13. Isogenic 293FT cells (CRBN-WT or CRBN−/−) were engineered to expressed HA-tagged FKBP*. Cells were treated with the indicated dose of dFKBP13 for 4 hours before lysates were prepared for western immunoblot analysis.
293FT cells (CRBN-WT) were engineered to express FKBP*. Cells were pretreated with 1 uM Carfilzomib (proteasome inhibitor), 0.5 uM MLN4924 (neddylation inhibitor), and 10 uM Lenalidomide (CRBN binding ligand) for two hours prior to a 4 hour treatment with dFKBP13. Lysates were prepared and western immunoblot analysis performed.

[2] = system: KRAS signaling (pMEK and pAKT); test: Immunoblot of downstream surrogates of KRAS signaling in NIH3T3 cells expressing dTAG-KRAS; assay type: cell-based
Description: FIG. 11 is an immunoblot of NIH3T3 cells expressing KRASG12V allele fused to FKBP* in the N-terminus or C-terminus. Cells were treated with 500 nM dFKBP7 for the indicated time. Cells were harvested and immunoblotted to measure degradation of FKBP*-KRASG12V and downstream surrogates of KRAS signaling (e.g. pMEK and pAKT).
FIG. 12 is an immunoblot of NIH3T3 cells expressing FKBP* fused to the N-terminus of KRASG12V treated with 1 uM of the indicated dFKBP heterobifunctional compounds for 24 hours. Cells were harvested and immunoblotted to measure degradation of FKBP*-KRASG12V and downstream surrogates of KRAS signaling (e.g. pMEK and pAKT).
FIG. 13 is an immunoblot of NIH3T3 cells expressing FKBP* fused to the N-terminus of KRASG12V treated with the indicated concentrations of dFKBP13 for 24 hours. Cells were harvested and immunoblotted to measure degradation of FKBP*-KRASG12V and downstream surrogates of KRAS signaling (e.g. pMEK and pAKT).
FIG. 14 is an immunoblot of NIH3T3 cells expressing FKBP* fused to the N-terminus of KRASG12V treated with 1 uM dFKBP13 for the indicated time. Cells were harvested and immunoblotted to measure degradation of FKBP*-KRASG12V and downstream surrogates of KRAS signaling (e.g. pMEK and pAKT).
Cells were treated with 500 nM dFKBP7 for the indicated time. Cells were harvested and immunoblotted to measure degradation of FKBP*-KRAS and downstream surrogates of KRAS signaling (e.g. pMEK and pAKT).
In an effort to identify the best performing dFKBP molecule, dTAG-KRAS degradation was profiled across a series of dFKBP molecules. Western blotting of NIH3T3 cells expressing dTAG-KRASG12V were treated with 1 μM of the indicated dFKBP heterobifunctional compounds for 24 hours. Cells were harvested and immunoblotted to measure degradation of FKBP*-KRAS and downstream surrogates of KRAS signaling (e.g. pMEK and pAKT).
Western blotting of NIH3T3 cells expressing FKBP* fused to the N-terminus of KRAS treated with the indicated concentrations of dFKBP13 for 24 hours. Cells were harvested and immunoblotted to measure degradation of FKBP*-KRAS and downstream surrogates of KRAS signaling (e.g. pMEK and pAKT).
To evaluate the kinetic control of targeted degradation of dTAG-KRAS, dFKBP13 was administered by increased duration. Western blotting of NIH3T3 cells expressing FKBP* fused to the N-terminus of KRAS treated with 1 μM dFKBP13 for the indicated time. Cells were harvested and immunoblotted to measure degradation of FKBP*-KRAS and downstream surrogates of KRAS signaling (e.g. pMEK and pAKT).
The dFKBP13 heterobifunctional compound potently degrades dTAG-KRAS mutant alleles. NIH3T3 cells were engineered to express KRAS alleles either WT or mutant forms of amino acid glycine 12 (G12C, G12D, and G12V). Western blotting of NIH3T3 cells expressing dTAG fused to the N-terminus of KRAS alleles were treated with 1 uM of dFKBP13 for 24 hours. Cells were harvested and immunoblotted to measure degradation of dTAG-KRAS and downstream surrogates of KRAS signaling (e.g. pMEK and pAKT).
The dFKBP13 heterobifunctional compound potently degrades dTAG-KRAS mutant alleles. NIH3T3 cells were engineered to express either WT or mutant KRAS alleles (G13D, Q61L, and Q61R). Western blotting of NIH3T3 cells expressing dTAG fused to the N-terminus of KRAS alleles were treated with 1 uM of dFKBP13 for 24 hours. Cells were harvested and immunoblotted to measure degradation of dTAG-KRAS and downstream surrogates of KRAS signaling (e.g. pMEK and pAKT).

[3] = 293FT CRBN-WT or CRBN−/−, 4 hours

T1 sequence (P62942 2-108 F37V limits assumed): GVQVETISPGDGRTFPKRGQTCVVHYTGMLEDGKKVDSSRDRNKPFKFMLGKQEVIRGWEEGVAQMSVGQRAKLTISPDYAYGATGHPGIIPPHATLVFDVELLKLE

Compound	degradation of FKBP* [1, 3]	degradation of HA-tagged FKBP* ([1]; 293FT CRBN-WT or CRBN−/−, indicated concentrations, 4 hours)	p-AKT signal ([2]; NIH3T3 N-terminal dTAG-KRAS, 500 nM, indicated time)	dose dependence of degradation of HA-tagged FKBP* ([1]; 293FT CRBN-WT or CRBN−/−, indicated dose, 4 hours)	mechanism of FKBP* degradation ([1]; 293FT CRBN-WT, 4 hour treatment after inhibitor pretreatment)	downstream signaling (pMEK and pAKT) ([2]; NIH3T3 FKBP*-KRASG12V, 1 uM, 24 hours)	time to inhibition of downstream signaling ([2]; NIH3T3 FKBP*-KRASG12V, 1 uM, post treatment) [h]	downstream signaling (pMEK and pAKT) ([2]; NIH3T3 dTAG-KRAS WT, G12C, G12D, G12V, 1 uM, 24 hours)	downstream signaling (pMEK and pAKT) ([2]; NIH3T3 dTAG-KRAS WT, G13D, Q61L, Q61R, 1 uM, 24 hours)	IC50 ([2]; read-out: IC50 of inhibition of downstream signaling, NIH3T3 FKBP*-KRASG12V, 24 hours) [µM]
CC[C@H](C(=O)N1CCCC[C@H]1C(=O)O[C@H](CCc1ccc(OC)c(OC)c1)c1cccc(OCC(=O)NCCCOCCOCCOCCCNC(=O)COc2cccc3c2C(=O)N(C2CCC(=O)NC2=O)C3=O)c1)c1cc(OC)c(OC)c(OC)c1 (some centres unmarked) [dFKBP7]	CRBN-dependent degradation of FKBP*	CRBN-dependent degradation of FKBP*	downstream decrease in p-AKT signal							
CC[C@H](C(=O)N1CCCC[C@H]1C(=O)O[C@H](CCc1ccc(OC)c(OC)c1)c1cccc(OCC(=O)NCCCCCCOc2cccc3c2C(=O)N(C2CCC(=O)NC2=O)C3=O)c1)c1cc(OC)c(OC)c(OC)c1 (some centres unmarked) [dFKBP13]	CRBN-dependent degradation of FKBP*			dose- and CRBN-dependent degradation	CRBN- and proteasome-dependent degradation	inhibition of downstream signaling	≤ 1	potently inhibits downstream signaling	potently inhibits downstream signaling	> 0.1
